From paper PMC2874095 (Journal of medicinal chemistry, 2010) come the findings set out here.

Substitutions are numbered along the chain they refer to. Read-outs that look alike come from different tables or passages of the source.

In series [1] the target is T1, N1L (Vaccinia virus, UniProt P17361).
T1 sequence (P17361 1-117): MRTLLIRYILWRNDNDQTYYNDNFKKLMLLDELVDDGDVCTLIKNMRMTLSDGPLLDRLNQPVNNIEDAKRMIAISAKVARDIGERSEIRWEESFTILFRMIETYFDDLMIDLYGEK
Format: binding.

In series [2] the target is T1, N1L. Format: binding. The source holds these as a separate data set.
For another series, the target named is T2, N1L I6K (Vaccinia virus, UniProt P17361, I6K).
T2 sequence (P17361 1-117 I6K): T1 sequence (P17361 1-117) with I6K
Format: binding.

The target in another series is Bcl-2 (Homo sapiens, UniProt P10415). It is filed as binding. Conditions: FPA, incomplete titration curves.
Another series addresses Bcl-XL (Homo sapiens, UniProt Q07817). It is filed as binding. Conditions: FPA, incomplete titration curves.
The test system of a further series is VacV-GFP. It is filed as cell-based, vaccinia virus.
Setting [3] is: compound concentrations above 100 μM.

Chain of Bcl-XL (Q07817 whole entry): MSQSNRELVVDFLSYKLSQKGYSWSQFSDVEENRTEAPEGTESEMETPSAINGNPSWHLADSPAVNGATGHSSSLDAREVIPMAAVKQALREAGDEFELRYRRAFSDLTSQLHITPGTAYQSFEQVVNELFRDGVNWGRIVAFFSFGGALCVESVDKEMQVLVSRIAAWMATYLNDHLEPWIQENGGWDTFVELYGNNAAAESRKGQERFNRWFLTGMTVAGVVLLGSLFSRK
Chain of Bcl-2 (P10415 whole entry): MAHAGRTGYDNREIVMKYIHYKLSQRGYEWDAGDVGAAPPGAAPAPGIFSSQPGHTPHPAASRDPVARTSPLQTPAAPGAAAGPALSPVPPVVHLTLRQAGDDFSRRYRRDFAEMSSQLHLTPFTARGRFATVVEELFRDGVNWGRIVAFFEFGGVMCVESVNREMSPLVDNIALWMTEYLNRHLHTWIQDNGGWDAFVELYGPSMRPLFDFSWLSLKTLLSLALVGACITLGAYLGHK

For the molecule `COc1ccc(C(C)c2cc(OC)c(OC)c(OC)c2)cc1` (centres unmarked) [Ligand 2], in the series with CV1 and HT1080 cells (setting [3]), the “non-specific cytotoxicity (in words)” value is reported as “no significant non-specific cytotoxicity”.
For `COc1ccc(CCc2cc(OC)c(O)c(OC)c2)cc1` [Ligand 3], at N1L [1], the “ΔH of N1L unfolding” value is 11.0 kcal/mol.
Take `Oc1ccc(/C=C/c2cc(O)cc(O)c2)cc1` [Ligand 4, trans-Resveratrol]: the “N1L inhibition (in words)” value at N1L [2] is reported as “moderate N1L inhibitor”. Moreover, the “ΔH of N1L unfolding” value on N1L [1] was 10.3 kcal/mol. Further, on N1L I6K, the “Tm of N1L I6K” value worked out at 61.1 °C and the “ΔH of N1L I6K unfolding” value turned out to be 15.9 kcal/mol.
For `COc1cc(C(c2ccccc2)c2ccccc2)c2ccccc2c1O` [Ligand 6], the “ΔH of N1L unfolding” value on N1L [1] was determined as 8.7 kcal/mol.
On to `Oc1cc(C(c2ccccc2)c2ccccc2)c2ccccc2c1O` [Ligand 7], for which the “binding to Bcl-2 (in words)” value at Bcl-2 is “poor ligand binding”. In addition, on Bcl-XL, the “binding to Bcl-XL (in words)” value was “poor ligand binding”. For the same molecule, on N1L [1], the “ΔH of N1L unfolding” value was 12.3 kcal/mol.
`COc1ccc2ccccc2c1-c1c(O)ccc2ccccc12` [Ligand 8]: the “binding to Bcl-2 (in words)” value at Bcl-2 is “cross-reactivity”. For the same molecule, the “binding to Bcl-XL (in words)” value at Bcl-XL is reported as “cross-reactivity”. For the same molecule, the “antiviral activity (in words)” value in the series on VacV-GFP is on record as “poor antiviral”. Moreover, the “non-specific cytotoxicity (in words)” value in the series with CV1 and HT1080 cells (absence of VacV-GFP, up to 150 μM) is “cytotoxicity in uninfected cells”.
As to `Oc1ccc(/C=N/c2ccccc2/N=C/c2ccc(O)c(O)c2)cc1O` [Ligand 9], the “ΔH of N1L unfolding” value at N1L [1] amounted to 17.8 kcal/mol. Also, the “non-specific cytotoxicity (in words)” value in the series with CV1 and HT1080 cells (setting [3]) was “no significant non-specific cytotoxicity”.
`COc1cc(-c2ccc3cc(OC)c(OC)c(OC)c3c2)cc(OC)c1OC` [Ligand 11]: on Bcl-2, the “binding to Bcl-2 (in words)” value is “poor ligand binding”. Further, the “binding to Bcl-XL (in words)” value at Bcl-XL is “poor ligand binding”. On N1L [1], the “effect on N1L enthalpy of unfolding (in words)” value is listed as “increase of enthalpy of unfolding”, the “effect on N1L melting temperature (in words)” value is “slight decrease of melting temperature” and the “ΔH of N1L unfolding” value is 20.3 kcal/mol. In the series on CV1 and HT1080 cells (setting [3]), the “non-specific cytotoxicity (in words)” value is on record as “no significant non-specific cytotoxicity”.
`Oc1cc(Cc2ccccc2)c(Cc2ccccc2)cc1O` [Ligand 12]: on N1L [1], the “ΔH of N1L unfolding” value is reported as 11.2 kcal/mol.
